Experimental data from article PMC6754293 (Cell chemical biology, 2019).

Tests used:
FAK autophosphorylation = FAK autophosphorylation immunoblot; type: cell-based; conditions: at the concentrations used
[1] = tested on: tyrosine phosphorylated FER in H1155 cells; assay: pY immunoprecipitation of FER; type: cell-based; conditions: 3 hours, 1 μM
H1155 cells = assay: H1155 cell viability with tool compounds alone or combined; type: cell-based; conditions: compared to AURKB inhibition
MEK1 = MEK1 (Homo sapiens, UniProt Q02750); assay: in vitro kinase assay MEK1; type: biochemical; conditions: 10 μM ATP; compared with cabozantinib
MEK1, sequence (Q02750 whole entry): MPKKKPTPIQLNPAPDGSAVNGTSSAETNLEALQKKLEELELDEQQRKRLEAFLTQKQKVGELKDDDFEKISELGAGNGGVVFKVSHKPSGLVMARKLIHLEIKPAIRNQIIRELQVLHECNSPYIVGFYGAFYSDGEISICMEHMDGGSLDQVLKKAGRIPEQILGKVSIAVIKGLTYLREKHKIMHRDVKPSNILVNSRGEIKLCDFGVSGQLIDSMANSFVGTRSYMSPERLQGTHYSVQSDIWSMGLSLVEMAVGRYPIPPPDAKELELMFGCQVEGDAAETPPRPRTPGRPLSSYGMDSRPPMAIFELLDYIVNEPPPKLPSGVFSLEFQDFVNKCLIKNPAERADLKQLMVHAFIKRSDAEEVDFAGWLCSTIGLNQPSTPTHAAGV

SCLC cell lines = assay: viability of SCLC cell lines; type: cell-based; conditions: 72 hours treatment
H1155 and A427 cells [2] = type: cell-based; conditions: 0.5 μM and 1 μM, 24 hours (blot), 24 and 48 hours (imaging)
SRC = SRC (Homo sapiens, UniProt P12931); assay: in vitro kinase assay SRC; type: biochemical; conditions: 10 μM ATP; compared with cabozantinib
SRC, sequence (P12931 whole entry): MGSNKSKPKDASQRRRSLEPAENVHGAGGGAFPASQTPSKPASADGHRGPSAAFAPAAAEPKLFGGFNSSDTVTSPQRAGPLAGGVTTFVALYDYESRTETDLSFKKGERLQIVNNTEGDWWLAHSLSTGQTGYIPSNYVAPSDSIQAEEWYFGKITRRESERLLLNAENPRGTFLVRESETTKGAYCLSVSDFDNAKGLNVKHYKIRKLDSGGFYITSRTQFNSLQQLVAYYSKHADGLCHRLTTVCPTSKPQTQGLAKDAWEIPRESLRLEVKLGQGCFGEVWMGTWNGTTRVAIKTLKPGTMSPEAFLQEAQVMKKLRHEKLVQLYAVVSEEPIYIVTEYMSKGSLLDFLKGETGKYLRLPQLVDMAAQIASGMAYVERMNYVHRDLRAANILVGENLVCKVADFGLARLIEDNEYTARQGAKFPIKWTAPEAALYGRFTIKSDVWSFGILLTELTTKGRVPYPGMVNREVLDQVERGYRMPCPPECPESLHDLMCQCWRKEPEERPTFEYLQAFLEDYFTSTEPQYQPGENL

H1155 and A427 cells [3] = assay: cell cycle analysis; type: cell-based; conditions: 6 hours
AURKA = molecular target: T1, AURKA (Homo sapiens, UniProt O14965); assay: in vitro kinase assay AURKA; type: biochemical; conditions: 10 μM ATP; compared with cabozantinib
T1 sequence (O14965 1-403): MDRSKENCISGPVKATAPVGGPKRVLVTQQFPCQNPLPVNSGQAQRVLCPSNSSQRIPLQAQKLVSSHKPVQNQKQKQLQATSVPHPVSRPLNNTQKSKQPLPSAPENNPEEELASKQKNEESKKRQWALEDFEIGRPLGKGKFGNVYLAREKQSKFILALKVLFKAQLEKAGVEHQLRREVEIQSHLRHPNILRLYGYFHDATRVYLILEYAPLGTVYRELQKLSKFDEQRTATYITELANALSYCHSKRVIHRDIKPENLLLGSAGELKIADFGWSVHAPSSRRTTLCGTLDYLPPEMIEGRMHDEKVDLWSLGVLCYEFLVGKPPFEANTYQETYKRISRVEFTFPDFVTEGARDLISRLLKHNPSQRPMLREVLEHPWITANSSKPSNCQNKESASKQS

AURKB = AURKB (Homo sapiens, UniProt Q96GD4); assay: in vitro kinase assay AURKB; type: biochemical; conditions: 10 μM ATP; compared with cabozantinib
AURKB, sequence (Q96GD4 whole entry): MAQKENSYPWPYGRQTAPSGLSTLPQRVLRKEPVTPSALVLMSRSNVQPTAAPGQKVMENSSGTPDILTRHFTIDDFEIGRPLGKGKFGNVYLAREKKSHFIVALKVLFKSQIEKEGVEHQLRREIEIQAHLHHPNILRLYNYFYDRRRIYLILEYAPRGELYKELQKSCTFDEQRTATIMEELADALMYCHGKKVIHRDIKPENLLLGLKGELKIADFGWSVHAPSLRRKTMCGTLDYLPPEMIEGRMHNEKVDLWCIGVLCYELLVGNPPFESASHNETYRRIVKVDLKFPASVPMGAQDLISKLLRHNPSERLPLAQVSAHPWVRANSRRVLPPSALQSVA

FER = FER (Homo sapiens, UniProt P16591); assay: in vitro kinase assay FER; type: biochemical; conditions: 10 μM ATP; compared with cabozantinib
FER, sequence (P16591 whole entry): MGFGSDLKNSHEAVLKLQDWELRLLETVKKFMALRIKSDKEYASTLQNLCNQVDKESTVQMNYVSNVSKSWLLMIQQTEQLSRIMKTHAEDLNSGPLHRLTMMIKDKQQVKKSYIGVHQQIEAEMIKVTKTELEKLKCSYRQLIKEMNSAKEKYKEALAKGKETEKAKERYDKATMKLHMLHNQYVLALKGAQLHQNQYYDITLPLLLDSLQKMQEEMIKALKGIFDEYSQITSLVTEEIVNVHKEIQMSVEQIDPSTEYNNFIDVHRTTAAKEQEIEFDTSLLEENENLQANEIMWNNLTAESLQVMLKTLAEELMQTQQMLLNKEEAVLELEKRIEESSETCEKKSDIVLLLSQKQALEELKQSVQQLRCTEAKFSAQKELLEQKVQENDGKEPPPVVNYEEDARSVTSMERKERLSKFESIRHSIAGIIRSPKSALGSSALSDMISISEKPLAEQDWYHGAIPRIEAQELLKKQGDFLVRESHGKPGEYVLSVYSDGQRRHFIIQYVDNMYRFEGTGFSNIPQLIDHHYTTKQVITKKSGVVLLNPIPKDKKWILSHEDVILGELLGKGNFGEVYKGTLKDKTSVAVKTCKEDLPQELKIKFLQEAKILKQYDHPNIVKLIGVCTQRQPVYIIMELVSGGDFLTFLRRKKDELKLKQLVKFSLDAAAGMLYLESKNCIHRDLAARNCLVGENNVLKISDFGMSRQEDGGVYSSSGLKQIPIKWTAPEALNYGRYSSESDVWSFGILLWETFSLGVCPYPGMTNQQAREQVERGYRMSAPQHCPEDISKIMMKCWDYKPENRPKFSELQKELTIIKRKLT

A427 cells = assay: crystal violet clonogenic assay; type: cell-based; conditions: 10 days
[4] = tested on: histone H3 at S10 (downstream target of AURKB); assay: Western blot of pH3; type: cell-based; conditions: H1155 cells, 6 hours, 0.05, 0.25 and 0.5 μM
NSCLC cell lines = assay: viability-based drug screen and dose response; conditions: 72 hours treatment; screen at 0.5 μM and 2.5 μM, confirmed in 14 NSCLC cell lines
[5] = tested on: pERK at T202/Y204 (substrate sites of MEK1/2); assay: Western blot of pERK; type: cell-based; conditions: H1155 and A427 cells; 1 hour; 0.1, 0.5 and 1 μM
[6] = tested on: SRC autophosphorylation at Y419 in H1155 cells; assay: SRC autophosphorylation at Y419; type: cell-based; conditions: data not shown
MEK2 = conditions: read-out: IC50 MEK2; second value of MEK1/2 pair; ref Yamaguchi et al., 2011; cited from earlier work
MET = MET (Homo sapiens, UniProt P08581); assay: pulldowns with H1648 lysate and in vitro MET kinase assays of probes; type: biochemical
MET, sequence (P08581 25-1390): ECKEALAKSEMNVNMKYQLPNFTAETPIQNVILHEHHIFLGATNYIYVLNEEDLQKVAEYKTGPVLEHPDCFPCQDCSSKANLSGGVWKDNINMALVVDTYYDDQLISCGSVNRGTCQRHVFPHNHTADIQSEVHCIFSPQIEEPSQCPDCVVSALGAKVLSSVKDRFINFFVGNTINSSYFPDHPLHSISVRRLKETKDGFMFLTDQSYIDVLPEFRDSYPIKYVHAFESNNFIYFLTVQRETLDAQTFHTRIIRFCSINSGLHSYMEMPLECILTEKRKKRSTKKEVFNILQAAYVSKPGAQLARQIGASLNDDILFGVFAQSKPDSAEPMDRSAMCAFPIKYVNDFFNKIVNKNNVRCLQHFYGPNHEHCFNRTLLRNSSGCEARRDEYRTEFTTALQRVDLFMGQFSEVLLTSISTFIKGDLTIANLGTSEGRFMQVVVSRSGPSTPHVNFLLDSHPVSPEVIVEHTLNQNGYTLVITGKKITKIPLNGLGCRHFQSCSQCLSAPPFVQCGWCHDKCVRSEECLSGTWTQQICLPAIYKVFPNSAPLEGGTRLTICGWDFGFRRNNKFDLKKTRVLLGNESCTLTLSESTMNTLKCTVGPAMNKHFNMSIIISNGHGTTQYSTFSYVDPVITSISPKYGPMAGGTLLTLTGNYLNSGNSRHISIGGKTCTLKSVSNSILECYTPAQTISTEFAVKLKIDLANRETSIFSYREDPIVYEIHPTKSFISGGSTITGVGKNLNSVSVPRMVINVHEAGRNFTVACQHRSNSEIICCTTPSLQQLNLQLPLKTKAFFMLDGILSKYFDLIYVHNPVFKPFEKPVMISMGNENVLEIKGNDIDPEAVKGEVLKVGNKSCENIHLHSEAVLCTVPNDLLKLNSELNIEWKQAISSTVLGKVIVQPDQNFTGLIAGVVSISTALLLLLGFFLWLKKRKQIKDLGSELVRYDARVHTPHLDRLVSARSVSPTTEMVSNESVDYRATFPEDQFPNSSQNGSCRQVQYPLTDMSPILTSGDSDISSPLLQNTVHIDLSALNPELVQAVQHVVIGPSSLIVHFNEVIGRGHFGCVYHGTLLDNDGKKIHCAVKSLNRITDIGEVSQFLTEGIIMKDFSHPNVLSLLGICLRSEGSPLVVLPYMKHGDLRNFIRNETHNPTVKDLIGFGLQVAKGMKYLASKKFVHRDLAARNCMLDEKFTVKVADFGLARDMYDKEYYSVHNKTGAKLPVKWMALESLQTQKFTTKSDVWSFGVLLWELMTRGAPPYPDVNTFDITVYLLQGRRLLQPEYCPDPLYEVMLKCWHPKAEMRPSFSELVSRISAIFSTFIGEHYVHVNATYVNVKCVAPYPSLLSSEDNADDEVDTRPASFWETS

[7] = tested on: MET autophosphorylation in H1648 cells

CNC(=O)c1c(F)cccc1Nc1nc(Nc2cc3c(cc2OC)CCN3C(=O)CN(C)C)nc2[nH]ccc12 [GSK1838705A]
FAK autophosphorylation (FAK autophosphorylation): not affected | phosphorylation changes of FER (pY immunoprecipitation) [1]: phosphorylation changes of FER

COc1cc(Nc2ncc3c(n2)-c2ccc(Cl)cc2C(c2c(F)cccc2OC)=NC3)ccc1C(=O)O [alisertib]
decrease of H1155 viability on combining with FER and MEK1/2 inhibition (H1155 cells): only in a minor decrease of viability

COc1cc2c(Oc3ccc(NC(=O)C4(C(=O)Nc5ccc(F)cc5)CC4)cc3F)ccnc2cc1OCCCN1CCOCC1 [foretinib]
MEK1 inhibition, in vitro kinase assay (MEK1): more potently inhibited by foretinib than by cabozantinib | effect on viability of SCLC cells (SCLC cell lines): potently inhibited viability of MYC-amplified SCLC cells, but not SCLC cells without MYC amplification | induction of apoptosis (PARP1 and caspase 3 cleavage, caspase 3/7) (H1155 and A427 cells [2]): induced apoptosis | SRC inhibition, in vitro kinase assay (SRC): more potently inhibited by foretinib than by cabozantinib | drug-induced cell cycle changes (H1155 and A427 cells [3]): pronounced accumulation of cells in G2 phase | AURKA inhibition, in vitro kinase assay (AURKA): more potently inhibited by foretinib than by cabozantinib | AURKB inhibition, in vitro kinase assay (AURKB): more potently inhibited by foretinib than by cabozantinib | FER inhibition, in vitro kinase assay (FER): more potently inhibited by foretinib than by cabozantinib | FAK autophosphorylation (FAK autophosphorylation): not affected | inhibition of A427 cell growth, clonogenic assay (A427 cells): inhibited A427 cell growth | phosphorylation changes of FER (pY immunoprecipitation) [1]: phosphorylation changes of FER | phosphorylation of histone H3 at S10 [4]: decreased phosphorylation of histone H3 at S10 | effect on viability of NSCLC cell lines (NSCLC cell lines): much higher cellular activity compared to cabozantinib | phosphorylation of pERK at T202/Y204 [5]: decreased phosphorylation of pERK | SRC autophosphorylation at Y419 [6]: did not decrease SRC autophosphorylation

OCCn1cc(-c2cnc3nnn(Cc4ccc5ncccc5c4)c3n2)cn1 [PF-04217903]
effect on viability of SCLC cells (SCLC cell lines): no effect on SCLC cells | effect on viability of NSCLC cell lines (NSCLC cell lines): little to no effects

COc1cc2c(Oc3ccc(N(C(=O)C4(C(N)=O)CC4)c4ccc(F)cc4)cc3F)ccnc2cc1OCCCN1CCN(CCCN)CC1 [i-foretinib, N-(4-((7-(3-(4-(3-aminopropyl)piperazin-1-yl)propoxy)-6-methoxyquinolin-4-yl)oxy)-3-fluorophenyl)-N-(4-fluorophenyl)cyclopropane-1,1-dicarboxamide]
ability to bind and inhibit MET (MET): retained their ability to bind and inhibit MET

CC1(C)CNc2cc(NC(=O)c3cccnc3NCc3ccncc3)ccc21 [motesanib]
effect on viability of SCLC cells (SCLC cell lines): no effect on SCLC cells | effect on viability of NSCLC cell lines (NSCLC cell lines): little to no effects

COc1cc2nccc(Oc3ccc(NC(=O)C4(C(=O)Nc5ccc(F)cc5)CC4)cc3)c2cc1OC [cabozantinib]
effect on viability of SCLC cells (SCLC cell lines): in contrast to cabozantinib | inhibition of MET autophosphorylation [7]: inhibited MET autophosphorylation | inhibition of A427 cell growth, clonogenic assay (A427 cells): in contrast to cabozantinib | effect on viability of NSCLC cell lines (NSCLC cell lines): little to no effects | phosphorylation of pERK at T202/Y204 [5]: in contrast to cabozantinib
